In assay [1] the test system is VEGF receptor 2. In words: RT-PCR of CNV lesions after treatment: VEGF receptor 2. The format is in vivo. Here is the method:
(§1) FIG. 7. RT-PCR Data of CNV after treatment. Reduced expression of pro-angiogenic and pro-inflammatory proteins upon treatment with compound 18.
(§2) Compound 18 was prepared using methods known in the art. (For example, see U.S. Pat. Nos. 8,115,023, and 7,683,193). […] (FIG. 3). On Day 7, retinal edema and angiogenesis between the two treatment groups were similar.

The test system of assay [2] is CNV lesions. Kind of assay: choroidal neovascularization (CNV) model of age-related macular degeneration (AMD), laser induced lesions supplemented with VEGF. The format is in vivo. Particulars: for CNV lesion number: week 4 of therapy, vs vehicle control; for vessels and edema in the CNV lesions (retinal angiography): by week 4, vs vehicle. Here is the method:
FIG. 4. Effect of compound 18 in a choroidal neovascularization (CNV) model of age-related macular degeneration (AMD). (A) Study Design: Simultaneous treatment model. Choroidal neovascularization (CNV) model, was used to determine its effect on new blood vessel formation. In this figure, laser induced lesions were further supplemented with 10 μg VEGF intravitreal administration every two weeks. Laser induced AMD lesions penetrated the Bruch's membrane. CNV lesions were treated with 0.5 mg compound 18 administered weekly, where first dosage was given at the time of CNV lesion formation. (B) Results.
FIG. 5. Effect of compound 18 in a choroidal neovascularization (CNV) model of age-related macular degeneration (AMD) A) Study Design: Sequential treatment model. CNV model was used to determine compound 18's effect on new blood vessel formation. Laser induced lesions were supplemented with 10 μg VEGF intravitreal administration every two weeks. CNV lesions were treated with 0.5 mg compound 18 administered weekly, were given one week after CNV lesion formation. (B) Results.
FIG. 6. Quantification of the Lesion Number and Mean Area. CNV lesions were enumerated at baseline, 2 and 4 weeks after CNV lesion formation. (A) Lesion Number. […] (B) Mean Area.
FIG. 8. Optical Coherence Tomography (OCT) of CNV Lesions Over Time. OCT was used to evaluate CNV lesion healing after compound 18 treatment.
FIG. 9. Confocal Scanning Fluorescent Microscope of CNV Lesions. Confocal scanning fluorescent microscopy is used to visualize the level of neovascular growth. In the vehicle treated lesions (Left), extensive neovascular growth is noted after one month.
FIG. 10. Confocal Scanning Electron Microscopy of CNV lesions treated with vehicle (Left) was compared with compound 18 treatment (Right).
as §2

Assay [3] concerns human mammary endothelial cells (HMEC). In words: tube formation assay (HMEC cultured in Geltrex). Format: cell-based. Particulars: 24 hours, concentration escalation, at greater than 100 nM, compared to untreated or no Geltrex. Here is the method:
FIG. 1. Inhibition of angiogenesis by compound 18 in a dose-dependent manner—Effect on tube formation. The effect of Compound 18 was evaluated using tube formation assay using a concentration escalation design.
as §2

Assay [4] relates to VEGF-induced angiogenesis. Kind of assay: VEGF-induced angiogenesis in a rabbit eye model. The format is in vivo. Here is the method:
FIG. 2. Inhibition of angiogenesis by compound 18 in a dose-dependent manner—Effect on VEGF-induced angiogenesis in a rabbit eye model. (A) Study design. To evaluate the impact of compound 18, 10 μg of VEGF in each eye is administered as an intravitreal injection. In this study, the activity of compound 18 is evaluated in a concentration escalation manner from 0.125 to 0.5 mg given as a single dosage. A formulation of compound 18 where the dosage is admixed in a total of 50 μL, was administered immediately after VEGF administration. (B) Results.
FIG. 3. Comparison of compound 18 with bevacizumab (Avastin)—Effect on VEGF-induced angiogenesis in a rabbit eye model. The potency of compound 18 was compared with bevacizumab. (A) Study design. Using a VEGF-induction eye model, where 10 μg of VEGF is injected as an intravitreal administration. One dose of 0.5 mg of compound 18 was compared with 1.25 mg bevacizumab after VEGF induction. (B) Results. […] On Day 7, retinal edema and angiogenesis between the two treatment groups were similar.
as §2

Assay [5] relates to cyclooxygenase-2 (COX-2). In words: RT-PCR of CNV lesions after treatment: COX-2. The format is in vivo. Here is the method: as §1, §2
The mark [6] stands for this setting: Day 7, 10 μg VEGF intravitreal, one dose.

Here are results for two compounds from patent US11058659B2, “Methods and compositions for the treatment of ophalmic diseases and disorders” (UNIVERSITY OF SOUTHERN CALIFORNIA, priority 2013, dated 2021).

Entries after “also recorded” stand apart in the source; their conditions may differ.

In the case of `CCCCC[C@@H](O)/C=C/c1cccc(/C=C/[C@@H](O)[C@@H](O)CCCC(=O)OC)c1` [Compound 18], the “expression of VEGF receptor 2 (RT-PCR)” value in assay [1] (sequential (SQ) treatment) and in assay [1] (simultaneous (SM) treatment) was “significantly reduced the expression” each time. Further, the “neovascular growth in CNV lesions (confocal scanning fluorescent microscopy)” value in assay [2] (after one month, vs vehicle treated lesions) was “significant reduction in neovascular growth”. For the same compound, the “CNV lesion healing by Optical Coherence Tomography (OCT)” value in assay [2] (same lesion evaluated at 2 weeks and 4 weeks) is reported as “able to promote healing of a lesion”. Further, the “mean CNV area” value in assay [2] (sequential (SQ) treatment) and in assay [2] (simultaneous (SM) treatment) was “reduction in the mean CNV area” throughout. Further, the CNV lesion number entry in assay [2] (sequential (SQ) treatment) and in assay [2] (simultaneous (SM) treatment) was “significantly reduced CNV lesion” in each case. Also, the “vessels and edema in the CNV lesions (retinal angiography)” value in assay [2] (sequential treatment model, 0.5 mg weekly starting one week after lesion formation) was “statistically significant reduction in the vessels and edema”; in assay [2] (simultaneous treatment model, 0.5 mg weekly from time of lesion formation) it was “statistically significant reduction in the vessels and edema”. Moreover, the “morphology of CNV lesions (Confocal Scanning Electron Microscopy)” value in assay [2] (vs vehicle (neovascular growth penetrating the Bruch's membrane)) was “thin-walled fenestrated vascular channels with flat configuration”. Moreover, the “inhibition of tube formation (angiogenesis)” value in assay [3] was “able to inhibit angiogenesis in a dose-response manner; also recorded: notable inhibition of tube formation”. The “activity profile vs Avastin” value in assay [4] (0.5 mg compound 18 vs 1.25 mg Avastin, Day 3 and Day 7 findings) is reported as “comparable or improved activity profile vs Avastin”. For the same compound, the “retinal edema and angiogenesis, 0.5 mg compound 18 compared to 1.25 mg bevacizumab” value in assay [4] (Day 3, 10 μg VEGF intravitreal, one dose) was “significantly lower retinal edema and angiogenesis”. In addition, the “retinal edema and angiogenesis between the two treatment groups (0.5 mg compound 18 vs 1.25 mg bevacizumab)” value in assay [4] (setting [6]) is “similar”. Also, the “level of retinal edema and angiogenesis vs vehicle” value in assay [4] (Day 7, 10 μg VEGF intravitreal, single dose, doses >0.25 mg (0.125 to 0.5 mg tested)) is listed as “significantly reduced”. For the same compound, the “expression of cyclooxygenase-2 (COX-2) (RT-PCR)” value in assay [5] (sequential (SQ) treatment) and in assay [5] (simultaneous (SM) treatment) was “significantly reduced the expression” in each case.
Take “bevacizumab: FDA-approved anti-VEGF antibody injected intravitreally [reference compound]”: the “retinal edema and angiogenesis between the two treatment groups (0.5 mg compound 18 vs 1.25 mg bevacizumab)” value in assay [4] (setting [6]) was “similar”.
